From patent US4389412A, “Substituted cyclopropanecarboxylic acid esters and pesticidal compositions containing the same as active ingredient” (priority 1979, dated 1983)
Converted amounts (≈) assume the structure as drawn.

How the values were obtained:
[1] = system: green rice leafhoppers (Nephotettix cincticeps Uhler); experiment: Mortality test with green rice leafhoppers by topical application method; conditions: Nephotettix cincticeps, in Oryza sativa, 24 h; for LD50: read-out: LD50 (median lethal dose), topical, green rice leafhoppers; for mortality at 10 ng: read-out: Pesticidal effect, green rice leafhopper
Procedure: Mortality test with green rice leafhoppers (Nephotettix cincticeps Uhler) by topical application method
Then, the insects were kept at 25° C. with access to rice plant seedlings. The insects were used in groups of 15 individuals each.

[2] = system: tobacco cutworm (Prodenia litura); experiment: Utility Example-5: spray on soy bean leaves, tobacco cutworm larvae; assay type: in vivo; conditions: 48 h, 2 days
Procedure: An acetone solution of one of the test compounds as mentioned in Table 13 and Tween-20 (the same surfactant as mentioned hereinbefore) was prepared. This acetone solution was diluted with water to prepare a solution containing the test compound in a predetermined concentration. Leaves of soy bean in pots were sprayed with the above diluted solution at the rate of 20 ml/pot and, after one day, ten 3-instar larvae of tobacco cutworm (Prodenia litura) were released on the leaves. The pots were kept in a constant-temperature chamber at 25° C.

[3] = Acute toxicity test in rat by the oral route; assay type: in vivo; conditions: in vivo, male rat, in olive oil, after 7 days
Text: Acute toxicity test in rat by the oral route

[4] = Fish toxicity test with killifish; assay type: in vivo, Orizias latipes; conditions: water, killifish, 25±1° C., read-out: TLm (48 hrs.)
Method in brief: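 Test compound dispensed from acetone solution into water at set concentrations; ten aerated-water killifish (~0.25 g, ~2.5 cm) held at 25±1° C. Deaths scored after 48 hours; TLm (median tolerance limit, ppm) determined.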

[5] = Fish toxicity safety factor (TLm divided by maximum concentration in cover water); set-up: species or system carp; conditions: in vivo, TLm / maximum concentration in cover water at LC50 application (100 l per 10 ares, 5 cm depth)
Method in brief: (§1)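 Calculated index: carp TLm (ppm) divided by the maximum compound concentration expected in paddy cover water. That concentration assumes 100 l of solution at the pest LC50 applied per 10 ares onto 5 cm deep cover water, all of it entering the water.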

[6] = system: brown planthoppers (Nilaparvata lugens Stal); experiment: Utility Example-1: LC50 on adult brown planthoppers on dipped rice plants; assay type: in vivo; conditions: Nilaparvata lugens, 24 h, 25° C., read-out: Pesticidal activity LC50
Method in brief: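 Rice plants 4 weeks from sowing were dipped in water-diluted 1% emulsifiable concentrate at set concentrations and air-dried. Thirty adult N. lugens were caged on each pot, held at 25 °C.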

[7] = system: green rice leafhoppers (Nephotettix cincticeps Uhler); experiment: Utility Example-4: 0.2% dust on rice seedlings, green rice leafhoppers; assay type: in vivo; conditions: 5 kg per 10 ares, 24 hours, resistant to organophosphorus and carbamate pesticides
Text: A 0.2% dust preparation of each of the cis- and trans-isomers and a 50:50 mixture of the cis- and trans-isomers of Compound (1) and of Compound (2) as prepared by the procedure described in Formulation Example-3 was applied to rice seedlings by means of a bell-jar duster at the rate of 5 kg per 10 ares. […] In all cases, the mortality was not less than 90%.

[8] = system: small brown planthoppers (Laodelphax striatellus Fallen); experiment: Utility Example-3: spray on rice plants, small brown planthoppers; assay type: in vivo; conditions: 7 ml/pot, 24 hours
Procedure: A 30% emulsifiable concentrate of each of the cis- and trans-isomers and a 50:50 mixture of the cis- and trans-isomers of Compound (1) and of Compound (2) as prepared by the procedure described in Formulation Example-1 was diluted with water to a concentration of 80 ppm as active compound. Rice plants 4 weeks after sowing in pots (each pot 6 cm in diameter, 7 seedlings) were sprayed with the above diluted solution at the rate of 7 ml/pot and, after drying in the air, each pot was covered with a wire-mesh cage. Then, 30 adult small brown planthoppers (Laodelphax striatellus Fallen) were released into the cage. The pots were kept in a constant-temperature chamber at 25° C. […] In all groups, the mortality was not less than 90%.

[9] = Toxicity test with water-fleas; assay type: in vivo, Daphnia pulex; conditions: water, 25±1° C., read-out: TLm, Water-flea (6 hrs.)
Procedure: Toxicity test with water-fleas (Daphnia pulex)
An acetone solution of one of the test compounds as mentioned in Table 10 and Tween-20 (the same surfactant as mentioned hereinbefore) was prepared. To 100 ml of water in a high-walled dish (9 cm in diameter, 7 cm deep) was added the above acetone solution. The mixture was stirred thoroughly to prepare an aqueous solution containing the test compound in a predetermined concentration. This was used as a test water. Twenty water-fleas (Daphnia pulex) were released into each test water which was maintained at 25±1° C. After 6 hours, the water-fleas were examined for deaths. The TLm (median tolerance limit, ppm) was determined.

fish = experiment: Fish toxicity safety factor (TLm divided by maximum concentration in cover water); set-up: species or system carp
Method in brief: as §1

## CC1(C)C(C=C(Cl)Cl)C1C(=O)OCc1cccc(Oc2ccccc2)c1 (centres unmarked) [Compound (B), Permethrin]
[1]
  mortality at 0.01 µg/female: 80%
  mortality at 0.1 µg/female: 100%
  mortality at 1 µg/female: 100%
  LD50: 1.25 mg/kg
  mortality at 10 ng: 80%
[2]
  mortality at 6.5 ppm: 60%
  mortality at 13 ppm: 90%
[3]
  LD50 at 168 h: 300 mg/kg
[4]
  LC50 at 48 h: 0.04 µg/mL (≈ 0.102 µM)
[5]
  selectivity ratio: 0.01
[6]
  LC50: 700 µg/mL (≈ 1790 µM)

## C#CC(OC(=O)[C@@H]1[C@@H](C=C(Cl)Cl)C1(C)C)c1cccc(Oc2ccc(Cl)cc2)c1 (relative stereo) [Compound (2) trans-]
[1]
  mortality at 0.01 µg/female: 100%
  mortality at 0.1 µg/female: 100%
  mortality at 1 µg/female: 100%
  LD50: 0.45 mg/kg
[7]
  mortality: not less than 90%
[8]
  mortality at 80 ppm: ≥ 90%
[9]
  LC50 at 6 h: > 40 µg/mL
[4]
  LC50 at 48 h: > 10 µg/mL
[5]
  selectivity ratio: > 28
fish
  concentration which kills 50% of pests as fraction of concentration which kills 50% of fish: less than 1/28
[6]
  LC50: 180 µg/mL (≈ 400 µM)

## C#CC(OC(=O)[C@@H]1[C@H](C=C(Cl)Cl)C1(C)C)c1cccc(Oc2ccc(Cl)cc2)c1 (relative stereo) [Compound (2) cis-]
[1]
  mortality at 0.01 µg/female: 100%
  mortality at 0.1 µg/female: 100%
  mortality at 1 µg/female: 100%
  LD50: 0.44 mg/kg
[7]
  mortality: not less than 90%
[8]
  mortality at 80 ppm: ≥ 90%
[9]
  LC50 at 6 h: > 40 µg/mL
[4]
  LC50 at 48 h: > 10 µg/mL
[5]
  selectivity ratio: 2.1
[6]
  LC50: 200 µg/mL (≈ 445 µM)

## C#CC(OC(=O)C1C(C=C(Cl)Cl)C1(C)C)c1cccc(Oc2ccc(Cl)cc2)c1 (stereo not drawn) [Compound (2) cis-/trans- = 50:50, 3-(4-chlorophenoxy)-α-ethynylbenzyl 2,2-dimethyl-3-(2,2-dichlorovinyl)cyclopropanecarboxylate]
[1]
  mortality at 0.01 µg/female: 100%
  mortality at 0.1 µg/female: 100%
  mortality at 1 µg/female: 100%
  LD50: 0.44 mg/kg
  mortality at 10 ng: 100%
[7]
  mortality: not less than 90%
[2]
  mortality at 6.5 ppm: 100%
  mortality at 13 ppm: 100%
[8]
  mortality at 80 ppm: ≥ 90%
[9]
  LC50 at 6 h: > 40 µg/mL
[3]
  LD50 at 168 h: > 3000 mg/kg
[4]
  LC50 at 48 h: > 10 µg/mL
fish; TLm / maximum concentration in cover water at LC50 application (100 l per 10 ares, 5 cm depth)
  Fish toxicity safety factor: 7.4
[6]
  LC50: 190 µg/mL (≈ 422 µM)

## CC1(C)[C@@H](C=C(Cl)Cl)[C@@H]1C(=O)OCc1cccc(Oc2ccc(Cl)cc2)c1 (relative stereo) [Compound (1) trans-, 3-(4-chlorophenoxy)benzyl trans-2,2-dimethyl-3-(2,2-dichlorovinyl)cyclopropanecarboxylate]
[1]
  mortality at 0.01 µg/female: 100%
  mortality at 0.1 µg/female: 100%
  mortality at 1 µg/female: 100%
  LD50: 0.68 mg/kg
[7]
  mortality: not less than 90%
[8]
  mortality at 80 ppm: ≥ 90%
[9]
  LC50 at 6 h: > 40 µg/mL
[4]
  LC50 at 48 h: > 10 µg/mL
[5]
  selectivity ratio: 3.5
[6]
  LC50: 650 µg/mL (≈ 1530 µM)
